Results taken from ChEMBL document CHEMBL1137369, “New orally active derivatives of artemisinin with high efficacy against multidrug-resistant malaria in mice” (J Med Chem, 2006).

What was measured:
[1] = tested on: Plasmodium yoelii nigeriensis; experiment: Antimalarial activity against multidrug-resistant Plasmodium yoelii nigeriensis infected Swiss mice (Mus musculus) at 48 mg/kg peroral dose over 4 days; type: functional; conditions: route oral
[2] = tested on: Plasmodium yoelii nigeriensis; experiment: Antimalarial activity as cures against multidrug-resistant Plasmodium yoelii nigeriensis infected Swiss mice (Mus musculus) at 48 mg/kg peroral dose over 4 days; type: functional; conditions: route oral
[3] = tested on: Plasmodium yoelii nigeriensis; experiment: Antimalarial activity against multidrug-resistant Plasmodium yoelii nigeriensis infected Swiss mice (Mus musculus) at 12 mg/kg peroral dose over 4 days; type: functional; conditions: route oral
[4] = Lipophilicity, Log P of the compound; type: physicochemical; conditions: octanol/water
[5] = Protection of Swiss mice (Mus musculus) infected with Plasmodium yoelii nigeriensis at 48 mg/kg, perorally for 4 days; type: functional; conditions: route oral
[6] = tested on: Plasmodium yoelii nigeriensis; experiment: Antimalarial activity against multidrug-resistant Plasmodium yoelii nigeriensis infected Swiss mice (Mus musculus) at 6 mg/kg peroral dose over 4 days; type: functional; conditions: route oral

Row | SMILES | Activity [1] | Activity [2] | Activity [3] | logP [4] | Activity [5] | Activity [6]
1 | C[C@H]1[C@@H](OCCOc2ccc(-c3ccccc3)cc2)O[C@@H]2C[C@@]3(C)CC[C@H]4[C@H](C)CC[C@@H]1[C@@]24OO3 | 100% | 100% | 100% | 6.85 | 100% | –
2 | C[C@H]1[C@@H](OCc2ccccc2-c2ccccc2)O[C@@H]2O[C@@]3(C)CC[C@H]4[C@H](C)CC[C@@H]1[C@@]24OO3 | 100% | 100% | 100% | 6.91 | 100% | –
3 | C[C@H]1[C@H](OCCOc2ccc(-c3ccccc3)cc2)O[C@@H]2C[C@@]3(C)CC[C@H]4[C@H](C)CC[C@@H]1[C@@]24OO3 | 100% | 100% | 100% | 6.85 | – | 44.33%
4 | C[C@H]1[C@@H](OCCc2ccc(-c3ccccc3)cc2)O[C@@H]2O[C@@]3(C)CC[C@H]4[C@H](C)CC[C@@H]1[C@@]24OO3 | 100% | 100% | 100% | 7.19 | 100% | –
5 | C[C@H]1[C@H](OCCC23CC4CC(CC(C4)C2)C3)O[C@@H]2O[C@@]3(C)CC[C@H]4[C@H](C)CC[C@@H]1[C@@]24OO3 | 100% | 100% | 97.43% | 6.29 | – | 61.25%
6 | C[C@@H]1CC[C@H]2[C@@H](C)C(OC3C4CC5CC(C4)CC3C5)O[C@@H]3O[C@@]4(C)CC[C@@H]1[C@]32OO4 (stereo not given in full) | 100% | 100% | 100% | 5.51 | 100% | –
7 | CCO[C@@H]1O[C@@H]2O[C@]3(C)CC[C@H]4[C@H](C)CC[C@@H]([C@H]1C)[C@@]24OO3 [ALPHA-ARTEETHER] | 100% | 100% | – | 3.84 | – | –
8 | C[C@H]1[C@H](OCCOc2ccccc2-c2ccccc2)O[C@@H]2C[C@@]3(C)CC[C@H]4[C@H](C)CC[C@@H]1[C@@]24OO3 | 100% | 100% | 100% | 6.85 | – | 64.44%
9 | C[C@H]1[C@@H](OCCC2C3CC4CC(C3)CC2C4)O[C@@H]2O[C@@]3(C)CC[C@H]4[C@H](C)CC[C@@H]1[C@@]24OO3 (stereo not given in full) | 100% | 100% | – | 6.15 | 100% | –
10 | C[C@H]1[C@H](OCc2ccc(-c3ccccc3)cc2)O[C@@H]2O[C@@]3(C)CC[C@H]4[C@H](C)CC[C@@H]1[C@@]24OO3 | 100% | 100% | 100% | 6.91 | – | 86.33%
11 | C[C@H]1[C@H](OCC2c3ccccc3-c3ccccc32)O[C@@H]2C[C@@]3(C)CC[C@H]4[C@H](C)CC[C@@H]1[C@@]24OO3 | 100% | 100% | 100% | 6.75 | – | –
12 | C[C@H]1[C@@H](OCC2c3ccccc3-c3ccccc32)O[C@@H]2C[C@@]3(C)CC[C@H]4[C@H](C)CC[C@@H]1[C@@]24OO3 | 100% | 100% | 100% | 6.75 | – | 92.95%
13 | C[C@H]1[C@@H](OCc2ccc(-c3ccccc3)cc2)O[C@@H]2O[C@@]3(C)CC[C@H]4[C@H](C)CC[C@@H]1[C@@]24OO3 | 100% | 100% | 100% | 6.91 | 100% | –
14 | C[C@H]1[C@@H](OCCOc2ccccc2-c2ccccc2)O[C@@H]2C[C@@]3(C)CC[C@H]4[C@H](C)CC[C@@H]1[C@@]24OO3 | 100% | 100% | – | 6.85 | – | –
15 | C[C@H]1[C@H](OCCC2C3CC4CC(C3)CC2C4)O[C@@H]2O[C@@]3(C)CC[C@H]4[C@H](C)CC[C@@H]1[C@@]24OO3 (stereo not given in full) | 100% | 100% | 100% | 6.15 | – | –
16 | C[C@H]1[C@@H](OCCC23CC4CC(CC(C4)C2)C3)O[C@@H]2O[C@@]3(C)CC[C@H]4[C@H](C)CC[C@@H]1[C@@]24OO3 | 100% | 100% | – | 6.29 | 60% | –
17 | C[C@@H]1CC[C@H]2[C@@H](C)C(OCC34CC5CC(CC(C5)C3)C4)O[C@@H]3O[C@@]4(C)CC[C@@H]1[C@]32OO4 (stereo not given in full) | 100% | 100% | 100% | 6.02 | 100% | –
18 | C[C@@H]1CC[C@H]2[C@@H](C)C(OCCC3c4ccccc4-c4ccccc43)O[C@@H]3C[C@@]4(C)CC[C@@H]1[C@]32OO4 (stereo not given in full) | 100% | 100% | 100% | 7.1 | 100% | –
19 | CCO[C@H]1O[C@@H]2O[C@@]3(C)CC[C@H]4[C@H](C)CC[C@@H]([C@H]1C)[C@@]24OO3 [ARTEMOTIL] | 100% | 100% | – | 3.84 | – | –
